Assay results as given in US9359376B2, “Substituted methylformyl reagents and method of using same to modify physicochemical and/or pharmacokinetic properties of compounds” (priority 2011, dated 2016).

Assay: in vivo
Method: […] Blood was collected by serial bleeding at 0.16 h, 0.5 h, 1 h, 2 h, 4 h, 6 h, 8 h and 24 h in heparinized tubes. Blood samples were centrifuged at 10,000 rpm for 10 min. at 4° C. to obtain the plasma, which were aspirated into separate labeled tubes and stored at −80° C. 400 ng/ml of Verapmil in acetonitrile was used as the drug extraction solvent for extracting drug from plasma. Extraction solvent was added to plasma was vortexed and shaken on shaker for 10 minutes, centrifuged at 10000 rpm for 10 minutes at 4° C. Supernatant was kept for analysis.
Acetonitrile and plasma calibration curves were generated and percentage of drug recovery from plasma determined. Quantitative analysis was done by liquid chromatography tandem mass spectrometry using multiple reaction monitoring (API3000 LC-MS/MS). Cmax, Tmax, AUC and t1/2 were calculated using Graph Pad PRISM version 5.04.

CCc1c2c(nc3ccc(O)cc13)-c1cc3c(c(=O)n1C2)COC(=O)[C@]3(O)CC [Compound 4150, (S)-4,11-diethyl-4,9-dihydroxy-1H-pyrano[3′,4′:6,7]indolizino[1,2-b]quinoline-3,14(4H,12H)-dione]
PK Value (AUC) (rat, in vivo): BDL

CC(=O)O[C@H]1C(=O)[C@@]2(C)[C@H]([C@H](OC(=O)c3ccccc3)[C@@]3(O)CC1=C(C)[C@@H](OC(=O)[C@H](O)[C@@H](NC(=O)c1ccccc1)c1ccccc1)C3)[C@]1(OC(C)=O)CO[C@@H]1C[C@@H]2O [Compound 4114, (2α,4α,5β,7β,10β,13α)-4,10-bis(acetyloxy)-13-{[(2R,3S)-3-(benzoylamino)-2-hydroxy-3-phenylpropanoyl]oxy}-1,7-dihydroxy-9-oxo-5,20-epoxytax-11-en-2-yl benzoate]
AUC (female, Sprague Dawley, rat, plasma, po, 10 mg/kg): 0.186 µM·h

CCc1c2c(nc3ccc(OCOC(=O)c4cccnc4)cc13)-c1cc3c(c(=O)n1C2)COC(=O)[C@]3(O)CC [Compound 305, (S)-((4,11-diethyl-4-hydroxy-3,14-dioxo-3,4,12,14-tetrahydro-1H-pyrano[3′,4′:6,7]indolizino[1,2-b]quinolin-9-yl)oxy)methyl nicotinate]
PK Value (AUC) (dosage 10.00 mpk, vehicle PEG400): BDL

CCc1c2c(nc3ccc(OCOC(=O)c4ccc[n+](COC(=O)NC(C)C)c4)cc13)-c1cc3c(c(=O)n1C2)COC(=O)[C@]3(O)CC.[I-] [Compound 306, (S)-3-((((4,11-diethyl-4-hydroxy-3,14-dioxo-3,4,12,14-tetrahydro-1H-pyrano[3′,4′:6,7]indolizino[1,2-b]quinolin-9-yl)oxy)methoxy)carbonyl)-1-(((isopropylcarbamoyl)oxy)methyl)pyridin-1-ium iodide]
PK Value (AUC) (dosage 3.00 mpk, vehicle PEG400): BDL
